According to PubChem BioAssay (NCI):
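Compound exposure: 48 hours, 5 concentrations, 96-well plates. GI50 = concentration required for 50% inhibition of growth. At the TGI there is no net growth.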

What was measured:
Assay in all cases: NCI-60 cell line screen, 48 h
[1] = test system: BT-549 breast
[2] = test system: CCRF-CEM leukemia
[3] = test system: COLO 205 colon
[4] = test system: HCC-2998 colon
[5] = test system: HCT-116 colon
[6] = test system: HOP-62 NSCLC
[7] = test system: HOP-92 NSCLC
[8] = test system: KM12 colon
[9] = test system: LOX IMVI melanoma
[10] = test system: MCF7 breast
[11] = test system: MDA-MB-231 breast
[12] = test system: MDA-MB-435
[13] = test system: MDA-N
[14] = test system: NCI-H522 lung
[15] = test system: RPMI-8226 leukemia
[16] = test system: SK-MEL-2 melanoma
[17] = test system: SNB-19 CNS
[18] = test system: SNB-75 CNS
[19] = test system: U251 CNS

SMILES | TGI [1] [µM] | TGI [2] [µM] | TGI [3] [µM] | TGI [4] [µM] | TGI [5] [µM] | TGI [6] [µM] | TGI [7] [µM] | TGI [8] [µM] | TGI [9] [µM] | TGI [10] [µM] | TGI [11] [µM] | TGI [12] [µM] | TGI [13] [µM] | TGI [14] [µM] | TGI [15] [µM] | TGI [16] [µM] | TGI [17] [µM] | TGI [18] [µM] | TGI [19] [µM] | GI50 [7] [µM]
CCOC(=O)NC(Nc1ccc(S(=O)(=O)Nc2ncccn2)cc1)(C(=O)OCC)C(F)(F)F (stereo unspecified) | > 100 | > 100 | > 100 | > 100 | > 100 | > 100 | > 100 | > 100 | > 100 | > 100 | > 100 | > 100 | > 100 | > 100 | > 100 | > 100 | > 100 | > 100 | > 100 | 
Cc1nc(N)c(N2CCNCC2)c(=O)[nH]1 | > 100 | > 100 | > 100 | > 100 | > 100 | > 100 | > 100 | > 100 | > 100 | > 100 | > 100 | > 100 | > 100 | > 100 | > 100 | > 100 | > 100 | > 100 | > 100 | 
CC(=O)OCC1OC(N2C(c3ccccc3)=CC(c3ccccc3)C(C#N)=C2S)C(OC(C)=O)C(OC(C)=O)C1OC(C)=O (stereo unspecified) | 20.6 | > 100 |  | > 100 | > 65.6 | 17.9 | 16.6 | > 44.9 | > 42.5 | > 65.4 | > 40.8 | > 40.2 | 15.1 | 28.6 | > 100 | 16.8 | 26.5 | 54.2 | 16.2 | 
COC1(OC)C2(Cl)CCC1(Cl)C(OC(C)=O)C2 (stereo unspecified) | > 100 | > 100 | > 100 | > 100 | > 100 | > 100 | > 100 | > 100 | > 100 | > 100 | > 100 | > 100 | > 100 | > 100 | > 100 | > 100 | > 100 | > 100 | > 100 | 
O=C1C(Br)=CC2(C=C1Br)CCN=c1c(O)c3c(c(O)c12)=NC=N3 | 33.3 | 48.9 | 37.6 | 46.3 | 30.3 | 31.1 | 24.8 | 30.9 | 27.1 | 28.5 | 29.4 | 23.4 | 3.34 | 28.1 | 50.9 | 21.3 |  | 30.5 | 28.4 | 
Cc1ccc(S(=O)(=O)OC2C3OC(C)(C)OC3OC2C(c2cc(O)c3c(c2O)C(=O)c2ccccc2C3=O)c2cc(O)c3c(c2O)C(=O)c2ccccc2C3=O)cc1 (stereo unspecified) | > 10 | > 10 | > 10 | > 10 | > 10 | > 10 | > 10 | > 10 | > 10 | > 10 | > 10 | > 10 | > 10 | > 10 | > 10 | > 10 | > 10 | > 10 | > 10 | 
COc1ccccc1N1C(=O)/C(=C\c2cccc(Oc3ccccc3)c2)SC1c1ccccc1 (stereo unspecified) | > 100 |  | 55 | > 100 | > 100 | > 100 | > 100 | > 100 | > 100 | > 100 | > 100 | > 100 | 64.6 | > 100 | > 100 | > 100 | > 100 | > 100 | > 100 | 
Cc1cccc2c(N)c3cccc(C(=O)NCCCNCCN)c3nc12 | 28 | > 70.4 | 20.1 | 19.6 | 25.9 | 18.3 | 42.7 | 19.5 | 25.2 | 11 | 12.9 | 29.1 | 27 | 0.0786 | 37.3 | 34 | 15 | 8.1 | 9.31 | 
Clc1ccc2c(NCCCCN=Cc3ccccc3)ccnc2c1 | 32.6 | > 100 | 18.1 | 27.8 | 18.4 | 23.7 | 26.3 | 20.8 | > 100 | 28.6 | 29 | 25.2 | 23.9 | 24.5 | > 100 | 24.5 | 45.7 | 24.1 | 24.5 | 
c1ccc2c(c1)nc1n2CNCC1 | > 100 |  | > 100 | > 100 | > 100 | > 100 | > 100 | > 100 | 73.3 | > 100 | > 100 | > 100 | > 100 | > 100 | > 100 | > 100 | > 100 | > 100 | > 100 | 
S=C(/N=c1/sc(Nc2ccccc2)nc2sc3c(c12)CCCC3)Nc1ccccc1 | > 62.5 | > 62.5 | > 62.5 | > 62.5 | > 62.5 | > 62.5 | > 62.5 | > 62.5 | > 62.5 | > 62.5 | > 62.5 | > 62.5 | > 62.5 | > 62.5 | > 62.5 | > 62.5 | > 62.5 |  | > 62.5 | 
COC12C=CC(CC1)C(C)(C)C2=O (stereo unspecified) | > 100 | > 100 | > 100 | > 100 | > 100 | > 100 | > 100 | > 100 |  | > 100 | > 100 | > 100 | > 100 | > 100 | > 100 | > 100 | > 100 | > 100 | > 100 | 
CCCN(CCCCC(NC(C)=O)C(=O)NCc1ccccc1)C(=O)N(CCCl)N=O (stereo unspecified) | > 100 | > 100 | > 100 | > 100 | > 100 | 78.3 | > 100 | > 100 | > 100 | > 100 | > 100 | > 100 | > 100 | > 100 | > 100 | > 100 | > 100 | 90.8 | > 74.9 | 
Brc1ccc2c(-c3nc(-c4c[nH]c5ccc(Br)cc45)cs3)c[nH]c2c1 | 27.8 | > 27.7 | 7.06 | 5.92 | 14.3 | 29.3 | 11 | 8.19 | 5.22 | 13.9 | 18.4 | 18.9 | 16.4 | 4.85 | 14 | 20.7 | 13 | 31.4 | 16.1 | 
Nc1nc(Cl)cc(NCC2(CO)CC(OCc3ccccc3)C2)n1 (stereo unspecified) | > 100 | > 100 | > 100 | > 100 | > 100 | > 100 | > 100 | > 100 | > 100 | > 100 | > 100 | > 100 | > 100 | > 100 | > 100 | > 100 | > 100 | 85.2 | > 100 | 
CCOC(=O)/C(O)=C(/C=NC(=S)c1ccncc1)C(=O)OCC | > 100 | > 100 | > 100 | > 100 | > 100 | > 100 | > 100 | > 100 | > 100 | > 100 | > 100 | > 100 | > 100 | > 100 | > 100 | > 100 | 97 | > 100 | > 100 | > 100
N#Cc1nc(COCCOCc2ccccc2)oc1N | > 100 | > 100 | > 100 | > 100 | > 100 | > 100 | > 100 | > 100 | > 100 | > 100 | > 100 | > 100 | > 100 | > 100 | > 100 | > 100 | > 100 | > 100 | > 100 | 
CCOC(=O)C(=C(SC)SC)c1nn2c(=O)cc(C)nc2s1 | 43.7 | 68.6 | 36.2 | 34.9 | 30.5 | > 100 | 34.4 | 89.7 | 29.5 | 35.5 | 47.8 | 30.7 | 30.6 | 41.7 | 41.3 | 37.5 | 86 | 89.6 | 58.1 | 
CC(=O)O[C@@H]1C=C(C)[C@H](CBr)O[C@@]2(C)CC[C@H](Br)C(C)(C)[C@H]12 | > 100 | > 100 | > 100 | > 100 | > 100 | > 100 | > 100 | > 100 | > 100 | > 100 | > 100 | > 100 | > 100 | 90.2 | > 100 | > 100 | > 100 | > 100 | > 100 | 
COc1ccc2c(c1)OCc1c-2oc2ccccc2c1=O | > 100 | > 100 | > 100 | > 100 | > 100 | > 100 | > 100 | > 100 | > 100 | > 100 | > 100 | > 100 | > 100 | > 100 | > 100 | > 100 |  | 92.4 | > 100 | 
C=C1CC[C@@]2(OC1)OC1C[C@H]3[C@@H]4CC=C5C[C@@H](O)CC(OC6OCC(OC(=O)[C@@H](O)[C@@H](C)CC)C(OC(C)=O)C6OC6OC(C)C(O)C(O)C6O)[C@]5(C)[C@H]4CC[C@]3(C)C1[C@@H]2C (stereo partly specified) | > 10 | 3.43 | 4.5 | 2.96 | 3.06 |  | > 10 | 5.13 | 3.67 | 3.23 | 3.23 | 3.38 | 3.51 | 3.27 | 4.89 | 3.11 | 3.87 | 4.84 | 3.21 | 
C=C(C)[C@@H](C(=O)OC)N1C(=O)c2ccccc2C1=O | > 100 | > 100 | > 100 | > 100 | > 100 | > 100 | > 100 | > 100 | > 100 | > 100 | > 100 | > 100 | > 100 | > 100 | > 100 | > 100 | > 100 | > 100 | > 100 | 
